Laboratory results: PMC4948722 (Cancer research, 2011)

Experiments:
Assay in all cases: kinase panel, […] compound, […] ATP
Assay type in all cases: biochemical
Conditions in all cases: read-out: % inhibition at 1 μM
[1] = target: MLK1 (Homo sapiens, UniProt P80192)
[2] = target: T1, GCK (Homo sapiens, UniProt Q12851)
T1 sequence (Q12851 1-820): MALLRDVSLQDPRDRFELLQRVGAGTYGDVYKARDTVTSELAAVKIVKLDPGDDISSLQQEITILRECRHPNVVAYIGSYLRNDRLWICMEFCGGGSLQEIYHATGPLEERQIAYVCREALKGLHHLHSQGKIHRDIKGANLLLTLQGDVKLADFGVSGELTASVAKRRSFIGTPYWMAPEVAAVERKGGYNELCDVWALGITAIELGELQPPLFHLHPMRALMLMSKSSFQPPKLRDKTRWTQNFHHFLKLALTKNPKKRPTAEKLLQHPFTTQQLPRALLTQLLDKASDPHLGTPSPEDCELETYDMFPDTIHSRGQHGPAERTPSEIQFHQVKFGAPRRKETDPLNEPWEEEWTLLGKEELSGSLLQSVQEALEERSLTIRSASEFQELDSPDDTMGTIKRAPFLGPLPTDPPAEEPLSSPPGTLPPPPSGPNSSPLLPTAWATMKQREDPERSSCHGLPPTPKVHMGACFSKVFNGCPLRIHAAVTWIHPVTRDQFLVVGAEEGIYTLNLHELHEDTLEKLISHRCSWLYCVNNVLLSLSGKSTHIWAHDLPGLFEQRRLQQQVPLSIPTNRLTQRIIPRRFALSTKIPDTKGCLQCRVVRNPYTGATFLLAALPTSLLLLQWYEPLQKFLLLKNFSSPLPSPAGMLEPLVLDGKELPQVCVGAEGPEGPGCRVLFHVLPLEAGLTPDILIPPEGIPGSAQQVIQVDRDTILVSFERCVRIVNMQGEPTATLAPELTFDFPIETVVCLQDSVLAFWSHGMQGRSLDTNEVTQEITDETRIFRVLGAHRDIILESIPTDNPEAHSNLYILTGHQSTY

[3] = target: MARK3 (Homo sapiens, UniProt P27448)
Chain of MARK3 (P27448 whole entry): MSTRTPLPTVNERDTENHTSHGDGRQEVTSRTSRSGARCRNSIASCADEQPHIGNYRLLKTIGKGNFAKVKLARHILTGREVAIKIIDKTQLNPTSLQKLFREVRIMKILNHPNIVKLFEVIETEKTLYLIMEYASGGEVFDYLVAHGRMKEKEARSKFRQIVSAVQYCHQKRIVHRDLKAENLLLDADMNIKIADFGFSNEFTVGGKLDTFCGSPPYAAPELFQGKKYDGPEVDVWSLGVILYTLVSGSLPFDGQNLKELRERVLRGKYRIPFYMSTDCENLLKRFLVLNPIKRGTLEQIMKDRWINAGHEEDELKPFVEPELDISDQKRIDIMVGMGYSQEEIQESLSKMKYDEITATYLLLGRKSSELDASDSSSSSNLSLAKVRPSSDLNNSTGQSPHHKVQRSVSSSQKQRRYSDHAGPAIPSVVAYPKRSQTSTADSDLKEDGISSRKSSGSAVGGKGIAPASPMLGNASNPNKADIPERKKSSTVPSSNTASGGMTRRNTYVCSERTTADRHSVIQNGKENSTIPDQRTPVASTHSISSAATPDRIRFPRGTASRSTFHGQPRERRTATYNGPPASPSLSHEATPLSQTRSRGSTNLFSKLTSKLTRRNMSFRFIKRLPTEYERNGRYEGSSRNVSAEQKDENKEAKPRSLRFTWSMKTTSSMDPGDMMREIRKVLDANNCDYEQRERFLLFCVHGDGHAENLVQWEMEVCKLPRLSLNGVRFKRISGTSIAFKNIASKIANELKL

Chain of MLK1 (P80192 whole entry): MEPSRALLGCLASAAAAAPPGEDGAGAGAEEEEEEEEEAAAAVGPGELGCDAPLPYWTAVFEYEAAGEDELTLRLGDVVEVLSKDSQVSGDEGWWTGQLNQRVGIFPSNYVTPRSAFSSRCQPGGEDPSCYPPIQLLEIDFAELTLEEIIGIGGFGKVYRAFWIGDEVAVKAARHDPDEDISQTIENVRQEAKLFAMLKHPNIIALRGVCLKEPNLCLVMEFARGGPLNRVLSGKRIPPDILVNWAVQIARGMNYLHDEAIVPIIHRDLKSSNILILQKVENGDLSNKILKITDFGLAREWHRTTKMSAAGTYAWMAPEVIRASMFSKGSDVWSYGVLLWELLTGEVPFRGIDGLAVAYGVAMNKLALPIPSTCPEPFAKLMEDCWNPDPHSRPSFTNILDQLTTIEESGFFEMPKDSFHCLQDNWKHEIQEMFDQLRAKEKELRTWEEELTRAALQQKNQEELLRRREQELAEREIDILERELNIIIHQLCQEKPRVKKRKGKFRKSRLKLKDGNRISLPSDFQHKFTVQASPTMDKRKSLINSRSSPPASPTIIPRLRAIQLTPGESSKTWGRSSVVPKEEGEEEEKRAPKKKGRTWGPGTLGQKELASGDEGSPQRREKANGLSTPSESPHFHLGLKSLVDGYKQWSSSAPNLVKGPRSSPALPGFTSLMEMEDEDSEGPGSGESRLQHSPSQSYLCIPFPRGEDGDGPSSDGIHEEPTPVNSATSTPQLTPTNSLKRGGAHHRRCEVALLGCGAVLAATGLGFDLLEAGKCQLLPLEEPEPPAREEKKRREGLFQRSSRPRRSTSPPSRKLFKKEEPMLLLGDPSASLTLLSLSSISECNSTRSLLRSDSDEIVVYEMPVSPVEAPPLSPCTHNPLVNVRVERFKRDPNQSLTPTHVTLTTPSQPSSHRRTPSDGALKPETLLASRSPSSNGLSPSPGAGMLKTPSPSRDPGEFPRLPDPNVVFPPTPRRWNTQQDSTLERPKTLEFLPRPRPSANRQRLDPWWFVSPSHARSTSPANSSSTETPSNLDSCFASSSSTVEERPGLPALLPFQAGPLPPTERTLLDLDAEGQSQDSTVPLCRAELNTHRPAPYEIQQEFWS

inhibition at 1 µM [1]: > 80%
inhibition at 1 µM [2]: > 80%
inhibition at 1 µM [3]: > 80%
SMILES: COc1cc2nc(-c3cc(F)ccc3O)nc(N[C@@H]3CNC[C@H]3C(C)(C)O)c2cc1OC [CCT241533]
